For test [1], the system named is cellular prion protein (PrPC). Type of test: cell-based, human. The conditions noted are these: healthy and CKD patient MSCs treated with melatonin; ELISA; FIGS. 4B, 4C.
For the next test, the system named is miR-4516. As to the kind of experiment: miRNA / miR-4516 expression by RNA microarray and qPCR in MSCs and exosomes. The conditions noted are these: healthy MSCs and CKD-MSCs treated with melatonin; qPCR; FIG. 4F. Type of test: cell-based, human.

In the case of `COc1ccc2[nH]cc(CCNC(C)=O)c2c1` [melatonin], the “expression of prion proteins present in the exosomes extracted from stem cells” value in test [1] is “increases”. Also, the “expression level of miR-4516 in stem cells” value with miR-4516 was “increase”.
